How the values were obtained:
[1] = target: Beta Secretase enzyme (BACE) (Homo sapiens (Human), UniProt P56817); experiment: In vitro enzymatic BACE FRET assay; format: biochemical; details: read-out: BACE1 Enzyme assay IC50
Cathepsin D (Cat D) = Cathepsin D (Cat D) (Homo sapiens (Human), UniProt P07339); experiment: In vitro enzymatic Cathepsin D (Cat D) FRET assay; format: biochemical; details: read-out: CatD IC50
BACE = BACE (Homo sapiens (Human), UniProt P56817); experiment: In vitro BACE cell-based assay (Aβ40 in conditioned medium, sandwich ELISA)
Sequence of BACE (P56817 46-501, species assumed): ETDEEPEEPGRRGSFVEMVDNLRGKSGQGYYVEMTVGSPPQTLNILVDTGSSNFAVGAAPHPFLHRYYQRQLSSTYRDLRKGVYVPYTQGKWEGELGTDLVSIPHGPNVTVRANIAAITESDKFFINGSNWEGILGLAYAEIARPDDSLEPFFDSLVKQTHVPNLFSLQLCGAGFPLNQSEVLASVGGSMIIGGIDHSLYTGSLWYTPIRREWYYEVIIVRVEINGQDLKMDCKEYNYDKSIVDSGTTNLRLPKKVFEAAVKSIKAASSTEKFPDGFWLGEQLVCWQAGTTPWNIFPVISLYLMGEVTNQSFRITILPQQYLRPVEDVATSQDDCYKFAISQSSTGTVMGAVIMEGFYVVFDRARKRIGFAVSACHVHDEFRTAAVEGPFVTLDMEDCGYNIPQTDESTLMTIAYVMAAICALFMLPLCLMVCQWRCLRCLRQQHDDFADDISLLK

Sequence of Beta Secretase enzyme (BACE) (P56817 46-501): as the sequence (P56817 46-501, species assumed) above
Sequence of Cathepsin D (Cat D) (P07339 65-412, species assumed): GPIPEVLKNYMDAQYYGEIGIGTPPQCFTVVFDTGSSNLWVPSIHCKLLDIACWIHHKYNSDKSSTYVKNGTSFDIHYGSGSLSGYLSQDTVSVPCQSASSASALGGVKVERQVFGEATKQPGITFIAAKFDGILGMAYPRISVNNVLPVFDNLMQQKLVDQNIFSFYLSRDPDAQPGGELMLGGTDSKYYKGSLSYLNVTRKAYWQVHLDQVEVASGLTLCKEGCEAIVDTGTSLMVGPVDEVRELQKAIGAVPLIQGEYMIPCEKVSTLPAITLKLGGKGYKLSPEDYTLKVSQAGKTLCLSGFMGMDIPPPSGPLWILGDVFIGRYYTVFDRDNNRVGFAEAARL

Cc1cc(OC(F)F)cnc1C(=O)Nc1cc(F)c(Cl)c([C@]2(CF)N=C(N)O[C@H]3C[C@H]32)c1 (racemic) [Example 153, N-(3-([1(S,R),5(R,S),6(S, R)]-3-amino-5-(fluoromethyl)-2-oxa-4-azabicyclo[4.1.0]hept-3-en-5-yl)-4-chloro-5-fluorophenyl)-5-(difluoromethoxy)-3-methylpicolinamide compound with N-(3-((1S,5R,6S)-3-amino-5-(fluoromethyl)-2-oxa-4-azabicyclo[4.1.0]hept-3-en-5-yl)-4-chloro-5-fluorophenyl)-5-(difluoromethoxy)-3-methylpicolinamide (1:1)]
IC50 [1]: 0.143 µM
IC50 (Cathepsin D (Cat D)): 555 µM
IC50 (BACE): 0.0762 µM

Cc1nc(OCC(F)(F)F)cnc1C(=O)Nc1cc(F)c(Cl)c([C@]2(CF)N=C(N)O[C@H]3C[C@H]32)c1 (racemic) [Example 159, N-(3-([1(S,R),5(R,S),6(S,R)]-3-amino-5-(fluoromethyl)-2-oxa-4-azabicyclo[4.1.0]hept-3-en-5-yl)-4-chloro-5-fluorophenyl)-3-methyl-5-(2,2,2-trifluoroethoxy)pyrazine-2-carboxamide]
IC50 [1]: 0.226 µM
IC50 (Cathepsin D (Cat D)): 1050 µM
IC50 (BACE): 0.466 µM

NC1=N[C@](c2cccc(NC(=O)c3ccc(Cl)cn3)c2)(C(F)(F)F)[C@@H]2C[C@@H]2O1 (racemic) [Example 208, N-(3-([1(R,S),5(S,R),6(R,S)]-3-amino-5-(trifluoromethyl)-2-oxa-4-azabicyclo[4.1.0]hept-3-en-5-yl)phenyl)-5-chloropicolinamide]
IC50 [1]: 0.15 µM
IC50 (Cathepsin D (Cat D)): 489 µM
IC50 (BACE): 3.64 µM

NC1=N[C@](c2cc(NC(=O)c3ccc(Cl)cn3)ccc2F)(C(F)(F)F)[C@@H]2C[C@@H]2O1 (racemic) [Example 218, N-(3-((1(R,S),5(S,R),6(R,S))-3-amino-5-(trifluoromethyl)-2-oxa-4-azabicyclo[4.1.0]hept-3-en-5-yl)-4-fluorophenyl)-5-chloropicolinamide compound]
IC50 [1]: 0.861 µM
IC50 (Cathepsin D (Cat D)): > 400 µM
IC50 (BACE): > 15.6 µM

N#Cc1cnc(C(=O)Nc2ccc(F)c([C@]3(CF)N=C(N)O[C@H]4C[C@H]43)c2)c(Cl)c1 (racemic) [Example 227, N-(3-((1(R,S),5(S,R),6(R,S))-3-amino-5-(fluoromethyl)-2-oxa-4-azabicyclo[4.1.0]hept-3-en-5-yl)-4-fluorophenyl)-3-chloro-5-cyanopicolinamide]
IC50 [1]: 0.0469 µM
IC50 (Cathepsin D (Cat D)): 2260 µM
IC50 (BACE): 0.0105 µM

Cc1cc(C#N)cnc1C(=O)Nc1cc(F)c(C)c([C@@]2(C(F)F)N=C(N)O[C@@H]3C[C@@H]32)c1 (racemic) [Example 309, N-(3-(((1R,S),(5S,R),(6R.S))-3-amino-5-(difluoromethyl)-2-oxa-4-azabicyclo[4.1.0]hept-3-en-5-yl)-5-fluoro-4-methylphenyl)-5-cyano-3-methylpicolinamide]
IC50 [1]: 0.0743 µM
IC50 (Cathepsin D (Cat D)): 421 µM
IC50 (BACE): 0.0387 µM

N#Cc1ccc(C(=O)Nc2ccc(F)c([C@@]3(C(F)F)N=C(N)O[C@@H]4C[C@@H]43)n2)nc1 (racemic) [Example 330]
IC50 [1]: 0.101 µM
IC50 (Cathepsin D (Cat D)): 139 µM
IC50 (BACE): 0.0326 µM

CS(=O)(=O)c1c(F)cc(NC(=O)c2ccc(Cl)cn2)cc1[C@@]1(CF)N=C(N)O[C@@H]2C[C@@H]21 (racemic) [Example 424, N-(3-(((1RS),(5S,R),(6R,S))-3-amino-5-(fluoromethyl)-2-oxa-4-azabicyclo[4.1.0]hept-3-en-5-yl)-5-fluoro-4-(methylsulfonyl)phenyl)-5-chloropicolinamide]
IC50 [1]: 1.03 µM
IC50 (Cathepsin D (Cat D)): 832 µM
IC50 (BACE): 0.254 µM

C#CCOc1cnc(C(=O)Nc2cc(F)c(F)c(C3(CF)N=C(N)O[C@H]4C[C@H]43)c2)cn1 (stereo in doubt) [Example 34, N-(3-((1S,5S,6S)-3-amino-5-(fluoromethyl)-2-oxa-4-azabicyclo[4.1.0]hept-3-en-5-yl)-4,5-difluorophenyl)-5-(prop-2-yn-1-yloxy)pyrazine-2-carboxamide]
IC50 [1]: 6.21 µM
IC50 (Cathepsin D (Cat D)): 623 µM
IC50 (BACE): 1.75 µM

CC#CCOc1cnc(C(=O)Nc2cc(F)c(F)c(C3(CF)N=C(N)O[C@H]4C[C@H]43)c2)cn1 (stereo in doubt) [Example 36, N-(3-((1S,5S,6S)-3-amino-5-(fluoromethyl)-2-oxa-4-azabicyclo[4.1.0]hept-3-en-5-yl)-4,5-difluorophenyl)-5-(but-2-yn-1-yloxy)pyrazine-2-carboxamide]
IC50 [1]: 0.295 µM
IC50 (Cathepsin D (Cat D)): 526 µM
IC50 (BACE): 0.176 µM

NC1=NC(CF)(c2cc(NC(=O)c3ccc(Br)cn3)cc(F)c2F)[C@@H]2C[C@@H]2O1 (stereo in doubt) [Example 40, N-(3-((1S,5S,6S)-3-amino-5-(fluoromethyl)-2-oxa-4-azabicyclo[4.1.0]hept-3-en-5-yl)-4,5-difluorophenyl)-5-bromopicolinamide]
IC50 [1]: 6.5 µM
IC50 (Cathepsin D (Cat D)): 516 µM
IC50 (BACE): 1.91 µM

NC1=NC(CF)(c2cc(NC(=O)c3nn(C(F)F)cc3Cl)cc(F)c2F)[C@@H]2C[C@@H]2O1 (stereo in doubt) [Example 47, N-(3-((1S,5S,6S)-3-amino-5-(fluoromethyl)-2-oxa-4-azabicyclo[4.1.0]hept-3-en-5-yl)-4,5-difluorophenyl)-4-chloro-1-(difluoromethyl)-1H-pyrazole-3-carboxamide]
IC50 [1]: 21.2 µM
IC50 (Cathepsin D (Cat D)): 968 µM
IC50 (BACE): 1.76 µM

Cc1cc(C#N)cnc1C(=O)Nc1cc(F)c(F)c([C@@]2(CF)N=C(N)O[C@@H]3C[C@@H]32)c1 (stereo in doubt) [Example 50]
IC50 [1]: 26.6 µM
IC50 (Cathepsin D (Cat D)): 1750 µM
IC50 (BACE): > 15.6 µM

Cc1cc(C(F)(F)F)cnc1C(=O)Nc1cc(F)c(F)c([C@@]2(CF)N=C(N)O[C@@H]3C[C@@H]32)c1 (stereo in doubt) [Example 52]
IC50 [1]: > 40 µM
IC50 (Cathepsin D (Cat D)): 1630 µM
IC50 (BACE): > 15.6 µM

Cc1nc(Cl)cnc1C(=O)Nc1ccc(F)c([C@@]2(C(F)F)N=C(N)O[C@@H]3C[C@@H]32)c1 (stereo in doubt) [Example 53, N-(3-((1R,5S,6R)-3-amino-5-(difluoromethyl)-2-oxa-4-azabicyclo[4.1.0]hept-3-en-5-yl)-4-fluorophenyl)-5-chloro-3-methylpyrazine-2-carboxamide]
IC50 [1]: 0.0616 µM
IC50 (Cathepsin D (Cat D)): 577 µM
IC50 (BACE): 2.38 µM

Cc1ncc(Cl)nc1C(=O)Nc1ccc(F)c([C@@]2(C(F)F)N=C(N)O[C@@H]3C[C@@H]32)c1 (stereo in doubt) [Example 54, N-(3-((1R,5S,6R)-3-amino-5-(difluoromethyl)-2-oxa-4-azabicyclo[4.1.0]hept-3-en-5-yl)-4-fluorophenyl)-6-chloro-3-methylpyrazine-2-carboxamide]
IC50 [1]: 2.51 µM
IC50 (Cathepsin D (Cat D)): 460 µM
IC50 (BACE): 2.24 µM

NC1=N[C@](CF)(c2nc(NC(=O)c3ccc(Cl)cn3)ccc2F)[C@H]2C[C@H]2O1 (stereo in doubt) [Example 105, N-(6-((1R,5S,6R)-3-amino-5-(fluoromethyl)-2-oxa-4-azabicyclo[4.1.0]hept-3-en-5-yl)-5-fluoropyridin-2-yl)-5-chloropicolinamide]
IC50 [1]: 39.3 µM
IC50 (Cathepsin D (Cat D)): 1620 µM
IC50 (BACE): 2.1 µM

NC1=N[C@@](CF)(c2nc(NC(=O)c3ccc(Cl)cn3)ccc2F)[C@@H]2C[C@@H]2O1 (stereo in doubt) [Example 106, N-(6-((1S,5R,6S)-3-amino-5-(fluoromethyl)-2-oxa-4-azabicyclo[4.1.0]hept-3-en-5-yl)-5-fluoropyridin-2-yl)-5-chloropicolinamide]
IC50 [1]: 0.252 µM
IC50 (Cathepsin D (Cat D)): 216 µM
IC50 (BACE): 0.0456 µM
